Where “and” joins values, the source holds several entries; their conditions need not be identical. Identical values can stand only once. Results filed as inconclusive are left out. Where a SMILES comes first, the peptide text is derived from it. Bridges are numbered along the chain shown (N, C = ends).
System: BDF1 mice, colon carcinoma 38 sc, T/C %
Experiment: NCI In Vivo Anticancer Drug Screen. Data for tumor model Colon Carcinoma 38 (subcutaneous) in B6D2F1 (BDF1) mice
Summary of the method: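 Compound antitumor activity was assessed in mice carrying transplantable tumors. Survival or tumor size was recorded, and each value is the treated-group measurement divided by that of the vehicle-treated control group.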

[1] = endpoint: median tumor weight (est.), dose: 2.0 mg/kg/injection, schedule: Q07DX002 (ip), vehicle: saline, higher = larger tumour
[2] = endpoint: median tumor weight (est.), dose: 4.0 mg/kg/injection, schedule: Q07DX002 (ip), vehicle: saline, higher = larger tumour
[3] = endpoint: median tumor weight (est.), dose: 50.0 mg/kg/injection, schedule: Q07DX002 (ip), vehicle: saline with Tween-80, higher = larger tumour
[4] = endpoint: median tumor weight (est.), dose: 100.0 mg/kg/injection, schedule: Q07DX002 (ip), vehicle: saline with Tween-80, higher = larger tumour
[5] = endpoint: median tumor weight (est.), dose: 200.0 mg/kg/injection, schedule: Q07DX002 (ip), vehicle: saline with Tween-80, higher = larger tumour

COc1cc(NCc2ccc3nc(N)nc(N)c3c2C)cc(OC)c1OC
T/C (endpoint: median survival time, dose: 5.2 mg/kg/injection, schedule: Q04HX021 (ip), vehicle: sodium bicarbonate, higher = longer survival): 183 % of control | T/C (endpoint: median survival time, dose: 5.9 mg/kg/injection, schedule: Q06HX014 (ip), vehicle: sodium bicarbonate, higher = longer survival): 120 % of control | T/C (endpoint: median survival time, dose: 8.4 mg/kg/injection, schedule: Q04HX021 (ip), vehicle: sodium bicarbonate, higher = longer survival): 194 % of control | T/C (endpoint: median survival time, dose: 8.8 mg/kg/injection, schedule: Q06HX012 (oral), vehicle: sodium bicarbonate, higher = longer survival): 116 % of control | T/C (endpoint: median survival time, dose: 8.8 mg/kg/injection, schedule: Q06HX014 (ip), vehicle: sodium bicarbonate, higher = longer survival): 175 % of control | T/C (endpoint: median survival time, dose: 20.0 mg/kg/injection, schedule: Q06HX012 (oral), vehicle: sodium bicarbonate, higher = longer survival): 177 % of control | T/C (endpoint: median survival time, dose: 67.0 mg/kg/injection, schedule: Q07DX002 (ip), vehicle: sodium bicarbonate, higher = longer survival): 157 % of control | T/C (endpoint: median tumor weight (est.), dose: 1.88 mg/kg/injection, schedule: Q07DX002 (ip), vehicle: sodium bicarbonate, higher = larger tumour): 152 % of control | T/C (endpoint: median tumor weight (est.), dose: 12.5 mg/kg/injection, schedule: Q07DX002 (ip), vehicle: water, higher = larger tumour): 121 % of control | T/C (endpoint: median tumor weight (est.), dose: 25.0 mg/kg/injection, schedule: Q07DX002 (ip), vehicle: water, higher = larger tumour): 109 % of control | T/C (endpoint: median tumor weight (est.), dose: 50.0 mg/kg/injection, schedule: Q07DX002 (ip), vehicle: water, higher = larger tumour): 109 % of control | T/C (endpoint: median tumor weight (est.), dose: 53.0 mg/kg/injection, schedule: Q07DX002 (ip), vehicle: water, higher = larger tumour): 85 % of control | T/C (endpoint: median tumor weight (est.), dose: 66.0 mg/kg/injection, schedule: Q07DX002 (ip), vehicle: water, higher = larger tumour): 90 % of control | T/C (endpoint: median tumor weight (est.), dose: 70.0 mg/kg/injection, schedule: Q07DX002 (ip), vehicle: water, higher = larger tumour): 120 % of control | T/C (endpoint: median tumor weight (est.), dose: 80.0 mg/kg/injection, schedule: Q07DX002 (ip), vehicle: water, higher = larger tumour): 82 % of control | T/C (endpoint: median tumor weight (est.), dose: 99.0 mg/kg/injection, schedule: Q07DX002 (ip), vehicle: water, higher = larger tumour): 87 % of control | T/C (endpoint: median tumor weight (est.), dose: 100.0 mg/kg/injection, schedule: Q07DX002 (ip), vehicle: water, higher = larger tumour): 217 % of control | T/C (endpoint: median tumor weight (est.), dose: 105.0 mg/kg/injection, schedule: Q07DX002 (ip), vehicle: water, higher = larger tumour): 82 % of control | T/C (endpoint: median tumor weight (est.), dose: 120.0 mg/kg/injection, schedule: Q07DX002 (ip), vehicle: sodium bicarbonate, higher = larger tumour): 4 % of control | T/C (endpoint: median tumor weight (est.), dose: 120.0 mg/kg/injection, schedule: Q07DX002 (ip), vehicle: water, higher = larger tumour): 83 % of control

CCC(C)C1NC(=O)C(CC(C)C)NC(=O)C(C(C)C)NC(=O)C2CSSCC(NC1=O)C(=O)N2 (stereo not given) (cyclo(CCVLI); disulfide 1-2; configuration not given here)
T/C (endpoint: median tumor weight (est.), dose: 128.12 micrograms/kg/injection, schedule: Q07DX002 (ip), vehicle: Klucel (hydroxypropylcellulose) (HPC), higher = larger tumour): 160 % of control | T/C (endpoint: median tumor weight (est.), dose: 256.25 micrograms/kg/injection, schedule: Q07DX002 (ip), vehicle: Klucel (hydroxypropylcellulose) (HPC), higher = larger tumour): 118 % of control

c1ccc([P+](c2ccccc2)(c2ccccc2)c2ccccc2)cc1
T/C (endpoint: median tumor weight (est.), dose: 0.75 mg/kg/injection, schedule: Q07DX002 (ip), vehicle: saline, higher = larger tumour): 91 % of control | T/C (endpoint: median tumor weight (est.), dose: 0.75 mg/kg/injection, schedule: Q07DX003 (ip), vehicle: saline, higher = larger tumour): 84 % of control | T/C (endpoint: median tumor weight (est.), dose: 1.5 mg/kg/injection, schedule: Q07DX002 (ip), vehicle: saline, higher = larger tumour): 95 % of control | T/C (endpoint: median tumor weight (est.), dose: 1.5 mg/kg/injection, schedule: Q07DX003 (ip), vehicle: saline, higher = larger tumour): 83 % of control | T/C (endpoint: median tumor weight (est.), dose: 3.0 mg/kg/injection, schedule: Q07DX002 (ip), vehicle: saline, higher = larger tumour): 77 % of control | T/C (endpoint: median tumor weight (est.), dose: 3.0 mg/kg/injection, schedule: Q07DX003 (ip), vehicle: saline, higher = larger tumour): 69 % of control | T/C (endpoint: median tumor weight (est.), dose: 6.0 mg/kg/injection, schedule: Q07DX002 (ip), vehicle: saline, higher = larger tumour): 112 % of control | T/C (endpoint: median tumor weight (est.), dose: 6.0 mg/kg/injection, schedule: Q07DX003 (ip), vehicle: saline, higher = larger tumour): 66 % of control

COc1cc([C@@H]2c3cc4c(c(O)c3C[C@H]3COC(=O)[C@@H]32)OCO4)cc(OC)c1O
T/C (endpoint: median tumor weight (est.), dose: 0.5 mg/kg/injection, schedule: Q07DX002 (ip), vehicle: saline, higher = larger tumour): 78 % of control | T/C (endpoint: median tumor weight (est.), dose: 1.0 mg/kg/injection, schedule: Q07DX002 (ip), vehicle: saline, higher = larger tumour): 65 % of control | T/C [1]: 81 % of control | T/C [2]: 123 % of control

Cc1c(N)nc(C(CC(N)=O)NCC(N)C(N)=O)nc1C(=O)NC(C(=O)NC(C)C(O)CC(=O)NC(C(=O)NC(OC1OC(C)C(N)C(O)C1O)C(O)c1nc(-c2nc(C(=O)NCCCC(N)CC(=O)NCCCNCCCCN)cs2)cs1)C(C)O)C(OC1OC(CO)C(O)C(O)C1OC1OC(CO)C(O)C(OC(N)=O)C1O)c1cnc[nH]1 (stereo not given)
T/C [1]: 56 % of control | T/C [2]: 43 % of control | T/C (endpoint: median tumor weight (est.), dose: 8.0 mg/kg/injection, schedule: Q07DX002 (ip), vehicle: saline, higher = larger tumour): 25 % of control | T/C (endpoint: median tumor weight (est.), dose: 16.0 mg/kg/injection, schedule: Q07DX002 (ip), vehicle: saline, higher = larger tumour): 19 % of control | T/C (endpoint: median tumor weight (est.), dose: 32.0 mg/kg/injection, schedule: Q07DX002 (ip), vehicle: saline, higher = larger tumour): 6 % of control

COc1cc(Cc2nccc3cc(OC)c(OC)cc23)c(C(C)=O)c(OC)c1
T/C (endpoint: median tumor weight (est.), dose: 10.0 mg/kg/injection, schedule: Q07DX002 (ip), vehicle: suspension in saline, higher = larger tumour): 104 % of control | T/C (endpoint: median tumor weight (est.), dose: 20.0 mg/kg/injection, schedule: Q07DX002 (ip), vehicle: saline, higher = larger tumour): 110 % of control | T/C (endpoint: median tumor weight (est.), dose: 20.0 mg/kg/injection, schedule: Q07DX002 (ip), vehicle: suspension in saline, higher = larger tumour): 103 % of control | T/C (endpoint: median tumor weight (est.), dose: 40.0 mg/kg/injection, schedule: Q07DX002 (ip), vehicle: saline, higher = larger tumour): 107 % of control | T/C (endpoint: median tumor weight (est.), dose: 40.0 mg/kg/injection, schedule: Q07DX002 (ip), vehicle: suspension in saline, higher = larger tumour): 59 % of control | T/C (endpoint: median tumor weight (est.), dose: 80.0 mg/kg/injection, schedule: Q07DX002 (ip), vehicle: saline, higher = larger tumour): 82 % of control | T/C (endpoint: median tumor weight (est.), dose: 80.0 mg/kg/injection, schedule: Q07DX002 (ip), vehicle: suspension in saline, higher = larger tumour): 81 % of control | T/C (endpoint: median tumor weight (est.), dose: 160.0 mg/kg/injection, schedule: Q07DX002 (ip), vehicle: saline, higher = larger tumour): 96 % of control | T/C (endpoint: median tumor weight (est.), dose: 320.0 mg/kg/injection, schedule: Q07DX002 (ip), vehicle: saline, higher = larger tumour): 74 % of control

COC1=C(Br)[C@H](O)[C@](O)(CC#N)C=C1Br
T/C (endpoint: median tumor weight (est.), dose: 8.75 mg/kg/injection, schedule: Q07DX002 (ip), vehicle: Klucel (hydroxypropylcellulose) (HPC), higher = larger tumour): 52 % of control | T/C (endpoint: median tumor weight (est.), dose: 17.5 mg/kg/injection, schedule: Q07DX002 (ip), vehicle: Klucel (hydroxypropylcellulose) (HPC), higher = larger tumour): 80 % of control | T/C (endpoint: median tumor weight (est.), dose: 35.0 mg/kg/injection, schedule: Q07DX002 (ip), vehicle: Klucel (hydroxypropylcellulose) (HPC), higher = larger tumour): 49 % of control | T/C (endpoint: median tumor weight (est.), dose: 70.0 mg/kg/injection, schedule: Q07DX002 (ip), vehicle: Klucel (hydroxypropylcellulose) (HPC), higher = larger tumour): 105 % of control | T/C (endpoint: median tumor weight (est.), dose: 140.0 mg/kg/injection, schedule: Q07DX002 (ip), vehicle: Klucel (hydroxypropylcellulose) (HPC), higher = larger tumour): 70 % of control | T/C (endpoint: median tumor weight (est.), dose: 280.0 mg/kg/injection, schedule: Q07DX002 (ip), vehicle: Klucel (hydroxypropylcellulose) (HPC), higher = larger tumour): 56 % of control

CC1CC2OC2/C=C\C=C\C(=O)Cc2c(Cl)c(O)cc(O)c2C(=O)O1 (stereo not given)
T/C (endpoint: median tumor weight (est.), dose: 30.0 mg/kg/injection, schedule: Q07DX002 (ip), vehicle: Klucel (hydroxypropylcellulose) (HPC), higher = larger tumour): 72 % of control | T/C (endpoint: median tumor weight (est.), dose: 60.0 mg/kg/injection, schedule: Q07DX002 (ip), vehicle: Klucel (hydroxypropylcellulose) (HPC), higher = larger tumour): 74 % of control | T/C (endpoint: median tumor weight (est.), dose: 120.0 mg/kg/injection, schedule: Q07DX002 (ip), vehicle: Klucel (hydroxypropylcellulose) (HPC), higher = larger tumour): 105 % of control

CN(C)P(=O)(Oc1ccccc1)N(C)C
T/C [3]: 68 % of control | T/C [4]: 62 % of control | T/C [5]: 86 % of control

c1cc(OCC2CO2)ccc1OCC1CO1 (stereo not given)
T/C (endpoint: median tumor weight (est.), dose: 25.0 mg/kg/injection, schedule: Q07DX002 (ip), vehicle: Klucel (hydroxypropylcellulose) (HPC), higher = larger tumour): 76 % of control | T/C (endpoint: median tumor weight (est.), dose: 50.0 mg/kg/injection, schedule: Q07DX002 (ip), vehicle: Klucel (hydroxypropylcellulose) (HPC), higher = larger tumour): 96 % of control | T/C [3]: 113 % of control | T/C (endpoint: median tumor weight (est.), dose: 100.0 mg/kg/injection, schedule: Q07DX002 (ip), vehicle: Klucel (hydroxypropylcellulose) (HPC), higher = larger tumour): 67 % of control | T/C [4]: 94 % of control | T/C (endpoint: median tumor weight (est.), dose: 200.0 mg/kg/injection, schedule: Q07DX002 (ip), vehicle: Klucel (hydroxypropylcellulose) (HPC), higher = larger tumour): 63 % of control | T/C [5]: 82 % of control | T/C (endpoint: median tumor weight (est.), dose: 400.0 mg/kg/injection, schedule: Q07DX002 (ip), vehicle: Klucel (hydroxypropylcellulose) (HPC), higher = larger tumour): 77 % of control | T/C (endpoint: median tumor weight (est.), dose: 400.0 mg/kg/injection, schedule: Q07DX002 (ip), vehicle: saline with Tween-80, higher = larger tumour): 102 % of control | T/C (endpoint: median tumor weight (est.), dose: 800.0 mg/kg/injection, schedule: Q07DX002 (ip), vehicle: saline with Tween-80, higher = larger tumour): 77 % of control

N=C(N)CCCCCCCCC(=N)N
T/C (endpoint: median tumor weight (est.), dose: 1.56 mg/kg/injection, schedule: Q07DX002 (ip), vehicle: saline, higher = larger tumour): 102 % of control | T/C (endpoint: median tumor weight (est.), dose: 3.12 mg/kg/injection, schedule: Q07DX002 (ip), vehicle: saline, higher = larger tumour): 88 % of control and 99 % of control | T/C (endpoint: median tumor weight (est.), dose: 6.25 mg/kg/injection, schedule: Q07DX002 (ip), vehicle: saline, higher = larger tumour): 107 % of control | T/C (endpoint: median tumor weight (est.), dose: 12.5 mg/kg/injection, schedule: Q07DX002 (ip), vehicle: saline, higher = larger tumour): 76 % of control | T/C (endpoint: median tumor weight (est.), dose: 25.0 mg/kg/injection, schedule: Q07DX002 (ip), vehicle: saline, higher = larger tumour): 112 % of control

— PubChem BioAssay AID212 (DTP/NCI, 2004)
